The record followed here is US7670613B2, “Androgen modulators” (Pfizer Inc., priority 2004, dated 2010).

The assay has as its target T1, hAR (Homo sapiens, UniProt P10275).
T1 construct: made in house; host or cells: baculovirus/Sf9 insect cells
T1 sequence (P10275 1-920): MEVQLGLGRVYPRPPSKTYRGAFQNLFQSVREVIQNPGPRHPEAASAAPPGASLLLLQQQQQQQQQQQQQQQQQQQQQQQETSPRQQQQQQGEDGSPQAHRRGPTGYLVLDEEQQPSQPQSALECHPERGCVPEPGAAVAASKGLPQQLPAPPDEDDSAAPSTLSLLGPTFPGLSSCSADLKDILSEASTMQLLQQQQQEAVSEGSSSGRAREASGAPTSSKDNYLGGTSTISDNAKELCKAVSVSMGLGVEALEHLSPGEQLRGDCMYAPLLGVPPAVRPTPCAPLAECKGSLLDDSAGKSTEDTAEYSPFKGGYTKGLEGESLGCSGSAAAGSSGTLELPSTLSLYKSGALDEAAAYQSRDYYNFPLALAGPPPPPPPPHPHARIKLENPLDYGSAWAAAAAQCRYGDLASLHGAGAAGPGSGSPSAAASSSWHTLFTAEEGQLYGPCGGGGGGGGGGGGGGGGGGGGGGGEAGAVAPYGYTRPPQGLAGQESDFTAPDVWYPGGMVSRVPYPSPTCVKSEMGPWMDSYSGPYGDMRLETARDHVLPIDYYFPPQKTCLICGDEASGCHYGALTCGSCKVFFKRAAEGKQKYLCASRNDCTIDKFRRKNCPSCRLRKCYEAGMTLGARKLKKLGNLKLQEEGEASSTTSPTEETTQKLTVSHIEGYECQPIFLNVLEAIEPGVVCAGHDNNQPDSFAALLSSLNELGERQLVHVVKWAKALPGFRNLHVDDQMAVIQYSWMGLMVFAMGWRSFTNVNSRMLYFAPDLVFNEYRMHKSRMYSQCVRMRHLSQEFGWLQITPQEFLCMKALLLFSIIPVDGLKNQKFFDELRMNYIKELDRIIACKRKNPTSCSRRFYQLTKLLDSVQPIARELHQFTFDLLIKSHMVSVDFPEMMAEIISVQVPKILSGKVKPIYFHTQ
Briefly: Competitive binding analysis on baculovirus/Sf9 generated hAR extracts with 3H-DHT tracer. Particulars: AR Binding IC50, hAR extract, 1 nM 3H-DHT, one hour at 4° C.; mean of multiple tests.
With `N#Cc1ccc(O[C@@H]2CCCC[C@H]2C#N)cc1C(F)(F)F` (single isomer, unassigned) [Example 72, (trans)-(−)-4-(2-Cyano-cyclohexyloxy)-2-trifluoromethyl-benzonitrile], the IC50 turned out to be 43 nM. The result for `N#Cc1ccc(O[C@@H]2CCCCC2C#N)cc1C(F)(F)F` (stereo in doubt) [Example 14, -4-(2-Cyano-cyclohexyloxy)-2-trifluoromethyl-benzonitrile] reads 58 nM. For the compound `CC1CCCCC1Oc1ccc(C#N)c(C(F)(F)F)c1` (stereo not drawn) [Example 8, 4-(2-Methyl-cyclohexyloxy)-2-trifluoromethyl-benzonitrile], the concentration for half-maximal inhibition (IC50) worked out at 106 nM.
